{"source": "patent US20260258369A1", "about": "“GENERATION OF BRANCHING URETERIC BUD AND COLLECTING DUCT ORGANOIDS FROM HUMAN PLURIPOTENT STEM CELLS” (The Brigham and Women's Hospital, Inc., priority 2023, published 2026)", "key": {"[1]": {"target": "T1, V-type ATPase (Homo sapiens, UniProt P27449)", "assay": "Transwell open-circuit voltage and calculated current in FOXI1-induced (doxycycline-treated) CD cells", "format": "cell-based", "conditions": "bafilomycin 10 nM, added after amiloride, open circuit"}, "[2]": {"target": "T1, V-type ATPase", "assay": "Ussing chamber short-circuit current in FOXI1-induced CD cells", "conditions": "closed circuit"}, "[3]": {"target": "T2, ENaC (Homo sapiens, UniProt P37088+P51168+P51170)", "T2 sequence (P37088 1-669)": "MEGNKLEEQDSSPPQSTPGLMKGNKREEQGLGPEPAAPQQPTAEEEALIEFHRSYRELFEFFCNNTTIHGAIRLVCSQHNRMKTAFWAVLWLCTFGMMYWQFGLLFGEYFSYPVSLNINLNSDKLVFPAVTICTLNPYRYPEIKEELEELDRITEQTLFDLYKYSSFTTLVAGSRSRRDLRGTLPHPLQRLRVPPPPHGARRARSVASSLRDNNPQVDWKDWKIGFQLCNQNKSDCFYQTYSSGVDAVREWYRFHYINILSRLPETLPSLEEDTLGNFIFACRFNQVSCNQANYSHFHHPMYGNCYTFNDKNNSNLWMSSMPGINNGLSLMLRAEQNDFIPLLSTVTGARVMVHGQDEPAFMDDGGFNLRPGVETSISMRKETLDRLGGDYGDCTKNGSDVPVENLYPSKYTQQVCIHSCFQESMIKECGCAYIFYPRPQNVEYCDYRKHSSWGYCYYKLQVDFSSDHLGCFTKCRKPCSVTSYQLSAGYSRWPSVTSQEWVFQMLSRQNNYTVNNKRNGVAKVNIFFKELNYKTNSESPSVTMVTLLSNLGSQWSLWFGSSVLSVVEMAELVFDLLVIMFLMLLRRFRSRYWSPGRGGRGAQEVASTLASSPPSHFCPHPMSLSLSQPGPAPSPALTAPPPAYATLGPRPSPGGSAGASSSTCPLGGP", "T2 sequence (P51168 1-640)": "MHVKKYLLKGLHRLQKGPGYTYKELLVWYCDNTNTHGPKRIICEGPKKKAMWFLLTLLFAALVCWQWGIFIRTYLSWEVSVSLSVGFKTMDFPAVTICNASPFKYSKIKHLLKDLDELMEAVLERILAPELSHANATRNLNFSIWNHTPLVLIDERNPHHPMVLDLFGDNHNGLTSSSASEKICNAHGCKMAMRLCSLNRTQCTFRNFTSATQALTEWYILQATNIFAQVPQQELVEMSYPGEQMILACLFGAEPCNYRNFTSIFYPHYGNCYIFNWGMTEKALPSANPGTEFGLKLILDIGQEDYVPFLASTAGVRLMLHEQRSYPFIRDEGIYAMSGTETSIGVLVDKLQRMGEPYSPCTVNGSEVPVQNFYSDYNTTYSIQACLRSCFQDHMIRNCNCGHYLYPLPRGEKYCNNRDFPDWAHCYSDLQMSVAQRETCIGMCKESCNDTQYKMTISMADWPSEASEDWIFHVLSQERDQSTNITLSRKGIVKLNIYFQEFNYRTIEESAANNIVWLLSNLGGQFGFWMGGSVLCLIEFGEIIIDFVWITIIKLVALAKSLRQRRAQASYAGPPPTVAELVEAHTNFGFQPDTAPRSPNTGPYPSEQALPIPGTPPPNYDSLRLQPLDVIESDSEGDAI", "T2 sequence (P51170 1-649)": "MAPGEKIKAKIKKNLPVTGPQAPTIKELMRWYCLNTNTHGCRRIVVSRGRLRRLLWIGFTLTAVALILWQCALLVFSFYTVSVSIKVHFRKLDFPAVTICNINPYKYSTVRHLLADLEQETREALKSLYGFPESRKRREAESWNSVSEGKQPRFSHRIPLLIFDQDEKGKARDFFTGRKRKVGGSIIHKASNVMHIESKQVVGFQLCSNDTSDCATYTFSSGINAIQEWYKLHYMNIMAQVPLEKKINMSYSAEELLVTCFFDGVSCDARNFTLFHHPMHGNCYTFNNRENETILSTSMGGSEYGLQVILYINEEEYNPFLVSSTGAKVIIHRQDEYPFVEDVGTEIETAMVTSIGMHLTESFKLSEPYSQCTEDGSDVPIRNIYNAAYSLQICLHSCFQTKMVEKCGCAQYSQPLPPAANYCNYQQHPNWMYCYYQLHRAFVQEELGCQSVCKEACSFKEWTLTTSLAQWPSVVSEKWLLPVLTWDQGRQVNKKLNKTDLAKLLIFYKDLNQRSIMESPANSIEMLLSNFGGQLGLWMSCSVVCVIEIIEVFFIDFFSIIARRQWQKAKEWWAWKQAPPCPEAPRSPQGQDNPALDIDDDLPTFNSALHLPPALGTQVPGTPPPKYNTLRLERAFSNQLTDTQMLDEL", "assay": "Ussing chamber short-circuit current (Isc) recordings in CD organoid-derived cells", "format": "cell-based", "design": "while the alpha subunit (SCNN1A) was expressed at lower levels; we confirmed expression at the protein level using an antibody specific to SCNN1B; the beta and gamma subunits were most abundant transcriptionally; endogenous in cells; host or cells: 2D cell line derived from hPSC-derived collecting duct organoids (principal cells), grown on transwell / Snapwell inserts"}, "[4]": {"system": "V-type ATPase", "assay": "Transwell open-circuit voltage and calculated current in FOXI1-induced (doxycycline-treated) CD cells", "format": "cell-based, human", "conditions": "open circuit transwell, amiloride 10 μM"}, "[5]": {"target": "T2, ENaC", "conditions": "amiloride 10 μM, open circuit"}, "[6]": {"system": "CD organoid-derived cells", "assay": "Aldosterone response of transepithelial current in CD organoid-derived cells", "format": "cell-based, human", "conditions": "24 hours; for increase in amiloride-sensitive current: aldosterone 10-100 nM, no dexamethasone"}}, "note": "“Also recorded” adds a separate entry of the source.", "data": [{"compound": "CO/C1=C\\C(C)=C\\[C@@H](C)[C@@H](O)[C@@H](C)C/C(C)=C/C=C/[C@H](OC)[C@@H]([C@@H](C)[C@@H](O)[C@H](C)[C@@]2(O)C[C@@H](O)[C@H](C)[C@@H](C(C)C)O2)OC1=O", "note": "[bafilomycin, bafilomycin-A1]", "values": [{"measurement": "voltage and calculated current in FOXI1-induced cells", "setting": "[1]", "result": "completely suppressed"}, {"measurement": "short-circuit current in FOXI1-induced cells, bafilomycin", "setting": "[2]", "result": "near complete inhibition of the current"}]}, {"compound": "N=C(N)NC(=O)c1nc(Cl)c(N)nc1N", "note": "[amiloride]", "values": [{"measurement": "residual short-circuit current after raising the concentration", "setting": "[3]; amiloride 100 μM, Ussing chamber", "result": "eliminated the small amount of residual current; also recorded: completely abolished"}, {"measurement": "inhibition at 10 µM", "setting": "[3]; read-out: inhibition of short-circuit current", "result": "> 95", "unit": "%"}, {"measurement": "amiloride sensitivity of FOXI1-induced cells", "setting": "[4]", "result": "largely lost sensitivity"}, {"measurement": "short-circuit current in FOXI1-induced cells, amiloride", "setting": "[2]", "result": "small increase in current"}, {"measurement": "transepithelial resistance", "setting": "[5]", "result": "raising the transepithelial resistance"}, {"measurement": "transepithelial voltage and current", "setting": "[5]; within several minutes", "result": "completely abolished"}]}, {"compound": "C[C@]12CCC(=O)C=C1CC[C@@H]1[C@@H]2[C@@H](O)C[C@]2(C=O)[C@@H](C(=O)CO)CC[C@@H]12", "note": "[Aldosterone, aldosterone]", "values": [{"measurement": "increase in amiloride-sensitive current", "setting": "[6]", "result": "~ 2.5 fold"}, {"measurement": "increase in amiloride-sensitive current", "setting": "[6]; listed as aldosterone", "result": "approximately 2.5 fold"}, {"measurement": "transepithelial voltage and current", "setting": "[6]; varying concentrations of aldosterone", "result": "dose-dependent increase"}]}]}
